pEC50, pIC50: −log10 of the molar value. Converted amounts (≈) assume the structure as drawn.
How the values were obtained:
[1] = Cmax in Sprague-Dawley rat at 3 mg/kg,po by LC-MS/MS analysis; format: ADME, organism-based; parameters: dose 3 mg/kg, route po; conditions: in vivo
Cytochrome P450 2D6 = Cytochrome P450 2D6 (Homo sapiens, UniProt P10635); test: Inhibition of CYP2D6 in human liver microsomes using dextromethorphan as substrate incubated for 15 mins in presence of NADPH by LC/MS/MS analysis; format: ADME, Microsome
Sequence of Cytochrome P450 2D6 (P10635 whole entry): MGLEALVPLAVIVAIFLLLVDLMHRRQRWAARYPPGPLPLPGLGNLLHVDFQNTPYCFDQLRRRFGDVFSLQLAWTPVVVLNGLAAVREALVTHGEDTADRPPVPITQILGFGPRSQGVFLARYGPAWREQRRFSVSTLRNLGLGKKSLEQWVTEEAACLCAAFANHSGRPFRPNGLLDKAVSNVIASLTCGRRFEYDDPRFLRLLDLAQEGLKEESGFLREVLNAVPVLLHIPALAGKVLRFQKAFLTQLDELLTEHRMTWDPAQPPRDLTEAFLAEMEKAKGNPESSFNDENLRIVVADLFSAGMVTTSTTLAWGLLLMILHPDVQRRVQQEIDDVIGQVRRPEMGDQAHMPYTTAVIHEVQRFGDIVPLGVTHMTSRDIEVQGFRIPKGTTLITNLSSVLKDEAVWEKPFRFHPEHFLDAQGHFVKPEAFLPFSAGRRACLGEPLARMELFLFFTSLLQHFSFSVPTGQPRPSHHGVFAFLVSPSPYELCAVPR

[2] = biological target: GABA-A receptor; anion channel; test: Inhibition of rat GABAA receptor; format: protein-complex assay
[3] = Positive allosteric modulator activity at cynomolgus monkey M2 receptor expressed in CHO cells co-expressing Gqi5 in presence of EC20 concentration of acetylcholine by calcium mobilization assay; format: cell-based; conditions: Macaca fascicularis
[4] = Positive allosteric modulator activity at cynomolgus monkey M4 receptor expressed in CHO cells co-expressing Gqi5 in presence of EC20 concentration of acetylcholine by calcium mobilization assay; format: cell-based; conditions: Macaca fascicularis
[5] = biological target: Voltage-gated inwardly rectifying potassium channel KCNH2 (Homo sapiens, UniProt Q12809); test: Inhibition of hERG cardiac ion channel; format: toxicity
Sequence of Voltage-gated inwardly rectifying potassium channel KCNH2 (Q12809 whole entry): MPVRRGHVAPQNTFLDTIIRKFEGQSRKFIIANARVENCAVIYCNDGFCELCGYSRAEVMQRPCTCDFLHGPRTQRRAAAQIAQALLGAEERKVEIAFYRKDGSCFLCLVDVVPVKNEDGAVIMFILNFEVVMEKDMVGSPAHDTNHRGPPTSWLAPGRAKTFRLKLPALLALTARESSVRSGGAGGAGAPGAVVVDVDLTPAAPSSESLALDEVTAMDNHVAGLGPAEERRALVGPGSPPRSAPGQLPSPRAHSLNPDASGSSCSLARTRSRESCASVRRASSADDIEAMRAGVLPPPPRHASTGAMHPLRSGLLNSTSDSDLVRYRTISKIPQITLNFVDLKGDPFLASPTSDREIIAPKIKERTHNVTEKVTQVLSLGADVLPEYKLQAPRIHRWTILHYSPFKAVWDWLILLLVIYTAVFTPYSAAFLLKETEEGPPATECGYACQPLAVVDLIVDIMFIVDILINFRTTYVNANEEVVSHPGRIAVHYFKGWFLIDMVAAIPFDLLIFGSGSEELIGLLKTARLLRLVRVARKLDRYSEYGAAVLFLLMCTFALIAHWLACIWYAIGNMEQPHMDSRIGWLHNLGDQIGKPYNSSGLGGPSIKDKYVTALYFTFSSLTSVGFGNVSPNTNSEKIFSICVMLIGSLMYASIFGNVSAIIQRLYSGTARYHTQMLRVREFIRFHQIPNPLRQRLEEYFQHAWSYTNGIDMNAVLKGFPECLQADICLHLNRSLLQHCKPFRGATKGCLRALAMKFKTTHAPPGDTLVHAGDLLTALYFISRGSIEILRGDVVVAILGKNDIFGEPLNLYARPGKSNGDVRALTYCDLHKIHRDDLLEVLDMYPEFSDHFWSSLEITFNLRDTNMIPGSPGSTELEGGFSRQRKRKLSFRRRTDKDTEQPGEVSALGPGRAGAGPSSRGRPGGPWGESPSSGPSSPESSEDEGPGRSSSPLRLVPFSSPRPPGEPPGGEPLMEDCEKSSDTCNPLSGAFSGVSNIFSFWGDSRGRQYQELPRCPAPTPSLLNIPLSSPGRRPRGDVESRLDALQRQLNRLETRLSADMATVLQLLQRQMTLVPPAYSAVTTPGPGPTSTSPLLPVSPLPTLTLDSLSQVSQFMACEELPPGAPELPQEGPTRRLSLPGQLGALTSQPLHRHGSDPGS

[6] = biological target: T1, Muscarinic acetylcholine receptor M2 (Rattus norvegicus, UniProt P10980); test: Positive allosteric modulator activity at rat M2 receptor expressed in CHO cells co-expressing Gqi5 assessed as maximal response to ACh by calcium mobilization assay; format: cell-based
T1 sequence (P10980 whole entry): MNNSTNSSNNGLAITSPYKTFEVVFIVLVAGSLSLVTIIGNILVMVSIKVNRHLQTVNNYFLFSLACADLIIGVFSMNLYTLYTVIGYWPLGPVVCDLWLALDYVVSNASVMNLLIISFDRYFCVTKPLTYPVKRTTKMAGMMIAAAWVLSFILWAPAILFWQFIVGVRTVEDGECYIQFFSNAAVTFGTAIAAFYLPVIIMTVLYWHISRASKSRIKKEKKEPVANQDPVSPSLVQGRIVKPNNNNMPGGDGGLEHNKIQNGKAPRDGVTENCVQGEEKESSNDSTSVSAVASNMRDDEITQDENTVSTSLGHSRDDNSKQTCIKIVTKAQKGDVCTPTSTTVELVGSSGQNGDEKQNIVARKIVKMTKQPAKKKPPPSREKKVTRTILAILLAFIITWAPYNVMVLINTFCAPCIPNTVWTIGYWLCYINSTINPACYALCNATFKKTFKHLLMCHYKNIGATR

Cytochrome P450 2C9 = Cytochrome P450 2C9 (Homo sapiens, UniProt P11712); test: […] of human CYP2C9 mediated drug metabolism incubated for 5 mins followed by NADPH addition measured after 1 hr by LC-UV/MS analysis relative to control; format: ADME; conditions: recombinant enzyme, 1.083 h, time 65 min
Sequence of Cytochrome P450 2C9 (P11712 whole entry): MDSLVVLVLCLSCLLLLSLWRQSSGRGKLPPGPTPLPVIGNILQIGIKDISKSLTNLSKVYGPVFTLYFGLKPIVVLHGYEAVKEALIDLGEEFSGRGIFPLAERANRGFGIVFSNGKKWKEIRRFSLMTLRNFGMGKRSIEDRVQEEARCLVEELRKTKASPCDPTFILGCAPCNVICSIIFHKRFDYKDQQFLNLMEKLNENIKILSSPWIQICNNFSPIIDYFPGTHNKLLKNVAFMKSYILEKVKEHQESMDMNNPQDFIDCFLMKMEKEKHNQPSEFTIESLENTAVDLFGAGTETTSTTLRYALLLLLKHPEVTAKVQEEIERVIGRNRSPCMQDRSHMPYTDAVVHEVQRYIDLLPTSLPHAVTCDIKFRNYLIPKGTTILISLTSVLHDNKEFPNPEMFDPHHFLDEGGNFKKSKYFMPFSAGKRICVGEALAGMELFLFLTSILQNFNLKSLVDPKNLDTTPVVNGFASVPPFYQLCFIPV

[7] = biological target: T2, Muscarinic acetylcholine receptor M4 (Homo sapiens) (UniProt P08173); test: Positive allosteric modulator activity at human M4 receptor expressed in CHO cells co-expressing Gqi5 assessed as maximal response to ACh by calcium mobilization assay relative to contol; format: cell-based; conditions: filed as positive allosteric modulator
T2 sequence (whole entry): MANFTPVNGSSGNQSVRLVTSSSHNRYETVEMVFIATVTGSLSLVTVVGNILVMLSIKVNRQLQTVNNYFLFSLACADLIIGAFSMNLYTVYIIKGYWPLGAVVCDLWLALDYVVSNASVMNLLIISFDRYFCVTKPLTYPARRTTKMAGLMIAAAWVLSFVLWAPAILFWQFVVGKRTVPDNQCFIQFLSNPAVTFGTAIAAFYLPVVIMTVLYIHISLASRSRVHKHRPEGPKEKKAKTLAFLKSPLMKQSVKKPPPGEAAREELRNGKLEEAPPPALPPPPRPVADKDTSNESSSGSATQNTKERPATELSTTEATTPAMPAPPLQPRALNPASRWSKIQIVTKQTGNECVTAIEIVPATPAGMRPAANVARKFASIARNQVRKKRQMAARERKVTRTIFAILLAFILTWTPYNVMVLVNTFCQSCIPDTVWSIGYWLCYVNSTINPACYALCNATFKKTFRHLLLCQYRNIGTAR

Cytochrome P450 3A4 = Cytochrome P450 3A4 (Homo sapiens, UniProt P08684); test: Activation of CYP34A in human hepatocyte using midazolam as substrate preincubated for 5 days followed by substrate addition and measured after 1 hr by LC-MS/MS analysis; format: ADME, cell-based
Sequence of Cytochrome P450 3A4 (P08684 whole entry): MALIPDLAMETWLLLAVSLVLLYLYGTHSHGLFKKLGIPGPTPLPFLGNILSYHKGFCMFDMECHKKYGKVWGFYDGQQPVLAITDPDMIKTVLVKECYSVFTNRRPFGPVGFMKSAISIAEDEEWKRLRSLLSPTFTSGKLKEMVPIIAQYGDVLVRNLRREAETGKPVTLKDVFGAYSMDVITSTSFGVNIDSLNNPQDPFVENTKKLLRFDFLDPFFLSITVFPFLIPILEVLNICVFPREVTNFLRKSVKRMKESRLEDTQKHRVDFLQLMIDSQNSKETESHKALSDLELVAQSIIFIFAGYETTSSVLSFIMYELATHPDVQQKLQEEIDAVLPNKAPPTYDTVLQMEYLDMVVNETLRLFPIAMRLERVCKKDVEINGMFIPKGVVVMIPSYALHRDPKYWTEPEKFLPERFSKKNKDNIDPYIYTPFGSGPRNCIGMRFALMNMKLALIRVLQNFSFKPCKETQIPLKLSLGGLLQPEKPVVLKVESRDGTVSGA

[8] = Cmax in Beagle dog at 3 mg/kg,po by LC-MS/MS analysis; format: ADME, organism-based, Canis lupus familiaris; parameters: dose 3 mg/kg, route po; conditions: in vivo
[9] = Oral bioavailability in Beagle dog at 3 mg/kg by LC-MS/MS analysis; format: ADME, organism-based, Canis lupus familiaris; conditions: in vivo
[10] = Plasma protein binding in human assessed as unbound fraction incubated for 4 hrs by LC/MS/MS analysis; format: ADME, cell-free
[11] = biological target: T3, Muscarinic acetylcholine receptor M4 (Rattus norvegicus) (UniProt P08485); test: Positive allosteric modulator activity at rat M4 receptor expressed in CHO cells co-expressing Gqi5 assessed as maximal response to ACh by calcium mobilization assay relative to contol; format: cell-based; conditions: filed as positive allosteric modulator
T3 sequence (whole entry): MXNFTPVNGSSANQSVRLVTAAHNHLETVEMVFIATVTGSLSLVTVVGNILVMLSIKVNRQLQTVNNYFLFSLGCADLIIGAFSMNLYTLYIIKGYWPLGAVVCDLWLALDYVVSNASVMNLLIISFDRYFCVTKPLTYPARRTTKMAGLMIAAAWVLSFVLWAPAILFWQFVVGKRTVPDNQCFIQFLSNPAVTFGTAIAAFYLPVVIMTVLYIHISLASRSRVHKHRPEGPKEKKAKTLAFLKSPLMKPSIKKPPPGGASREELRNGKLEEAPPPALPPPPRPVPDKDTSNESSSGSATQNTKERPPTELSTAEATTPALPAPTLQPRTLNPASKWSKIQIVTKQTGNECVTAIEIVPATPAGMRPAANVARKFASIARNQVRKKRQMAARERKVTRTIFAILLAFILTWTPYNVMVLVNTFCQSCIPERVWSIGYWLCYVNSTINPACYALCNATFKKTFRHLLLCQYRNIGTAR

[12] = Ratio of drug concentration in Sprague-Dawley rat brain to plasma at 1 to 10 mg/kg, po by LC-MS/MS analysis; format: ADME, organism-based; conditions: dose 1-10 mg/kg, read-out: BPR
[13] = Aqueous solubility of compound at pH 7.4; format: physicochemical; conditions: buffer
[14] = AUC (0 to infinity) in Beagle dog at 3 mg/kg,po by LC-MS/MS analysis; format: ADME, organism-based, Canis lupus familiaris; parameters: dose 3 mg/kg, route po; conditions: in vivo
[15] = Fraction unbound in rat brain incubated for 6 hrs by LC/MS/MS analysis; format: ADME, tissue-based
[16] = Ratio of unbound drug concentration in Beagle dog brain to plasma at 3 mg/kg, po by LC-MS/MS analysis; format: ADME, organism-based, Canis lupus familiaris; conditions: read-out: K(p,uu,brain)
[17] = Tmax in Beagle dog at 3 mg/kg,po by LC-MS/MS analysis; format: ADME, organism-based, Canis lupus familiaris; conditions: in vivo
[18] = Volume of distribution at steady state in Cynomolgous monkey at 0.2 mg/kg,iv by LC-MS/MS analysis; conditions: cynomolgus monkey, in vivo, read-out: Vdss
[19] = Terminal unbound plasma concentration in rat model of amphetamine-induced hyperlocomotion activity at 1 to 10 mg/kg, po measured after 1.5 hrs; format: ADME, organism-based; conditions: in vivo, dose 1-10 mg/kg

Cmax [1]: 1200 nM
pIC50 (Cytochrome P450 2D6): < 4.52
pIC50 [2]: 5.92
pEC50 [3]: < 4.52
pEC50 [4]: 6.99
pEC50 [6]: < 4.52
Activity (Cytochrome P450 2C9): 3.5%
Activity [7]: 80.6%
Activity ([7]; tested as the 2H-labelled form): 87.1%
pEC50 (Cytochrome P450 3A4): < 4.30
Cmax [8]: 220 nM
bioavailability [9]: 9.5%
fraction unbound at 4 h [10]: 0.054
Activity [11]: 68.7%
Kp [12]: 0.31
solubility [13]: 2.4 µM (≈ 0.865 µg/mL)
AUC(0-inf) [14]: 0.59 µM·h
fraction unbound at 6 h [15]: 0.037
Kp uu [16]: 0.84
Tmax [17]: 45 min
Vd [18]: 0.88 L/kg
Cp(f) [19]: 60 nM
SMILES: COc1ccc(CNC(=O)c2sc3nnc(C)c(C)c3c2N)cc1F
pIC50 [5]: < 4.48

Source: ChEMBL document CHEMBL5252536, “Discovery of VU0467485/AZ13713945: An M4 PAM Evaluated as a Preclinical Candidate for the Treatment of Schizophrenia” (ACS Med Chem Lett, 2017)
